What was measured:
[1] = target: T1, human D2 receptor (short isoform) (Homo sapiens, UniProt P14416); test: D2 receptor binding assay (displacement of 3H-spiperone), reported as D2/D4 selectivity; details: ratio D2/D4; 3H-spiperone 0.25 nM; D2 short isoform vs D4.2
T1 construct: 3H-spiperone displacement
Protocol: (§1) The potency of the test compound to reduce ^3 H-spiperone binding directly correlated to its binding affinity for the receptor.
CH4 C1 (rat pituitary) cells stably transfected with the human D2 receptor (short isoform) were grown in CO2 independent media in roller bottles (1500 cm^2) for 10 days. 100 μM ZnSO4 was added to the cells (the D2 promoter being zinc inducible). After 16 hours, fresh media was added to allow the cells to recover for 24 hours. The cells were harvested using versine and then centrifuged in a Sorval centrifuge for 10 minutes, at 5000 rpm (GS3 rotor). Pellets were quickly frozen in liquid nitrogen and stored at -80° C. until used in the binding assays. When used in the assay, cells were thawed on ice for 20 minutes. […] The receptor protein concentration was determined using the Pierce BCA assay.
(§2) The tubes were vortexed and incubated at room temperature for 90 minutes. The binding reaction was stopped by filtering using a Brandell Cell Harvester. The samples were filtered under vacuum over glass fibre filters (Whatman GF/B) presoaked for 2 hours in 0.3% polyethylenimine (PEI) in 50 mM Tris buffer (pH 7.4). The filters were then washed 3 times with 5 ml ice cold 50 mM Tris buffer (pH 7.4). Individual filter disks were put in scintillation vials (Biovials, Bechman). Ready Protein Plus liquid scintillant (5 ml, Beckman) was added and the vials counted by liquid scintillation spectrophotometry (Beckman LSC 6500) after equilibrating for three hours at room temperature to determine total binding (BT).
This assay employed the same procedures as the non-specific binding assay for D4 with the exception that 2 μM (final conc.) of (-) sulpiride (Research Chemicals Inc.) was used in place of dopamine.
(§3) The tubes were vortexed and incubated at room temperature for 90 minutes at which time the binding reaction was stopped by filtering. The filters were washed and counted using the same procedure as in the total binding assay described above to give the displacement binding value (BD).
(§4) IC50 was determined from an inhibition response curve, logit-log plot of %B/B0 vs concentration of test compound. Ki was calculated by the Cheng and Prustoff transformation: […]
where [L] is the concentration of ^3 H-spiperone used in the assay and KD is the dissociation constant of ^3 H-spiperone determined independently under the same binding conditions.

[2] = target: T2, human D4 receptor (D4.2 sub-type) (Homo sapiens, UniProt P21917, DEL265-296); test: D4 receptor binding assay (displacement of 3H-spiperone); details: 3H-spiperone 0.25 nM, cell membranes, Cheng and Prustoff, read-out: D4 AFFINITY Ki
T2 construct: expressed in transfected cells; host or cells: HEK 298 (human embryonic kidney) cells, stably transfected
T2 sequence (P21917 with tags, fused parts or gaps DEL265-296): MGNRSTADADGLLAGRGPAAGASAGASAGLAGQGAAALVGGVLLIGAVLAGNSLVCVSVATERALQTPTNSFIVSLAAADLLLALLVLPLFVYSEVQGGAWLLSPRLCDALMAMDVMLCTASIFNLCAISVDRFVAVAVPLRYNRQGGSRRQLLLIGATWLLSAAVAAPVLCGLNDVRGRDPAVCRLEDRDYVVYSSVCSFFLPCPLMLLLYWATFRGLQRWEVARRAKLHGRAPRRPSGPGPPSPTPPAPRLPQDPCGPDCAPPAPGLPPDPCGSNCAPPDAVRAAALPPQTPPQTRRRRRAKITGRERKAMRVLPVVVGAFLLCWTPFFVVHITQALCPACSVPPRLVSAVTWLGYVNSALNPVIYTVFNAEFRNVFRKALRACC
Protocol: as §1
The cells were then centrifuged in a Sorval centrifuge for 10 min, 5000 rpm (GS3 rotor) and the pellets quickly frozen in liquid nitrogen and stored at -80° C. until used in binding assay. When used in the assay, cells were thawed on ice for 20 min and then 10 ml of incubation buffer (50 mM Tris, 1 mM EDTA, 4 mM MgCl2, 5 mM KCl, 1.5 mM CaCl2, 120 mM NaCl, pH 7.4) was added. […] Concentration of receptor protein was determined using the Pierce BCA assay.
as §2
The tubes were vortexed and incubated at room temperature for 90 minutes at which time the binding reaction was stopped by filtering. The filters were washed and counted using the same procedure as in the total binding assay described above to give the non-specific binding value (NSB).
as §3, §4

human D4 receptors [3] = target: T3, human D4 receptors (Homo sapiens, UniProt P21917); test: Functional antagonist assay: reversal of dopamine inhibition of forskolin-stimulated adenyl cyclase (cAMP) in CHO Pro 5 cells; type: cell-based; details: dopamine and forskolin both 10 μM, read-out: % REVERSAL OF DOPAMINE EFFECT
T3 construct: expressed in transfected cells; host or cells: CHO Pro 5 cells, stably expressing
T3 sequence (P21917 1-419): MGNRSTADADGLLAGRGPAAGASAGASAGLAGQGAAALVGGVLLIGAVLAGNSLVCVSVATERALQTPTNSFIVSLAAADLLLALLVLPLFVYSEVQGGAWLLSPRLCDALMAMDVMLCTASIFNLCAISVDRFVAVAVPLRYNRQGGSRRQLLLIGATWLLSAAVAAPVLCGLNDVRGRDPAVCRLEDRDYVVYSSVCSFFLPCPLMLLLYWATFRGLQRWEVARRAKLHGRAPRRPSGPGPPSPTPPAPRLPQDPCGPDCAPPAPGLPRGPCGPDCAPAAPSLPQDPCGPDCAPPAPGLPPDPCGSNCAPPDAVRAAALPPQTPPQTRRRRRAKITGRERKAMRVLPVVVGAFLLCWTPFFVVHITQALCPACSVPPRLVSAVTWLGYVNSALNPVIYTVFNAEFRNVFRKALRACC
Protocol: The D4 receptor responds to dopamine and other agonists by reducing adenyl cyclase mediated production of cyclic AMP. […] Forskolin was used to elevate the basal adenyl cyclase activity.
(§5) CHO Pro 5 cells stably expressing human D4 receptors were plated in 6 well plates in DMEM (Dulbecco's Modified Eagle Medium)/F12(Nutrient Mixture F12 (Ham)) media with 10% FCS (fetal calf serum) and G418 (Geneticen Disulfate), and incubated at 37° C. in a CO2 incubator. The cells were allowed to grow to about 70% confluence before use in the assay.
Basal adenyl cyclase activity was determined from wells with only SFM+IBMX media added.
The cells were then incubated at 37° C. for 30 minutes in a CO2 incubator. Following incubation the media was aspirated from each well and then washed once with 2 mL of PBS (phosphate buffered saline). […] The cells from each well were then scraped and transferred into individual Eppendorf tubes. […]
Total inhibition (I0) of forskolin-stimulated adenyl cyclase activity by dopamine was determined as the difference in concentration of cAMP in the forskolin-treated cells (Cf) and dopamine-forskolin treated cells (Cd).
Net inhibition (I) of forskolin-stimulated adenyl cyclase activity by dopamine in the presence of an antagonist was determined as the difference in concentration of cAMP in the forskolin-treated cells (Cf) and test compound, dopamine and forskolin treated cells (C).

human D4 receptors [4] = target: T3, human D4 receptors; test: Functional agonist assay: decrease in forskolin-stimulated cAMP in D4 stably expressing CHO cells; type: cell-based; details: forskolin 10 μM
Protocol: The D4 receptor responds to dopamine and other agonists by reducing adenyl cyclase mediated production of cyclic AMP. Particular test compound 4-chloro-5H-dibenzo[b,e][1,4]diazepine was assayed for its ability to reverse dopamine inhibition of adenyl cyclase by the following procedure. Forskolin was used to elevate the basal adenyl cyclase activity.
as §5
To D4 stably expressing CHO cells prepared as previously described were added test compound and forskolin (10 μM final concentration). The cells were incubated, extracted and measured for cAMP concentration as above. Agonist activity of a test compound would result in a decrease in cAMP concentration compared to cells treated with forskolin (Cf) only.

D4 receptor = details: background, marketed products; read-out: D4 affinity, Ki; cited from earlier work

T1 sequence (P14416 with tags, fused parts or gaps DEL242-270): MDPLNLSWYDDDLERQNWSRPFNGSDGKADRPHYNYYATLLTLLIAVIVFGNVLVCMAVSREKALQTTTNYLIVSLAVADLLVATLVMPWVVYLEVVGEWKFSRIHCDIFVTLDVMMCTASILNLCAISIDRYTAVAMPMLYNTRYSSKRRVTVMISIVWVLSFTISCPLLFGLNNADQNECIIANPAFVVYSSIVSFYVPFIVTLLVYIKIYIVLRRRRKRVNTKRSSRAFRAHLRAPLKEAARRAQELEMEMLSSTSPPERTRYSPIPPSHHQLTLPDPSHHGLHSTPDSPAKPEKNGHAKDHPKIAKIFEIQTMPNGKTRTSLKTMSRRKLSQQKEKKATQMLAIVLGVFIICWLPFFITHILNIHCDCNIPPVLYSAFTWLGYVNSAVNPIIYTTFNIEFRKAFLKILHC

| Structure (SMILES) | SELECTIVITY FOR D4, D2/D4 [1] | Ki [2] [nM] | further results |
| --- | --- | --- | --- |
| CN1CCN(C2=Nc3ccccc3Nc3cccc(F)c32)CC1 [1-fluoro-11-(4-methyl-1-piperazinyl)-5H-dibenz[b,e][1,4]diazepine] | 12.6 |  |  |
| CN1CCN(C2=Nc3cc(Cl)c(Cl)cc3Nc3ccc(Cl)cc32)CC1 [2,7,8-trichloro-11-(4-methyl-1-piperazinyl)-5H-dibenzo[b,e][1,4]diazepine] | 10.7 |  |  |
| CN1CCN(C2=Cc3cc(C#N)ccc3Sc3ccccc32)CC1 [2-cyano-10-(4-methyl-piperazinyl)-dibenzo[b,f]thiepine] | 21.4 | 4.5 |  |
| CN1CCN(C2=Nc3ccccc3Nc3ccc(C(F)(F)F)cc32)CC1 [2-trifluoromethyl-11-(4-methyl-1-piperazinyl)-5H-dibenzo[b,e][1,4]diazepine] |  | 14.2 |  |
| CN1CCN(C2=Nc3cc(Cl)c(Cl)cc3Nc3c(Cl)cccc32)CC1 [4,7,8-trichloro-11-(4-methyl-1-piperazinyl)-5H-dibenzo[b,e][1,4]diazepine] | 18.8 |  |  |
| CN1CCN(C2=Nc3ccccc3Nc3c(Cl)cccc32)CC1 [4-Chloro-11-(4-methyl-1-piperazinyl)-5H-dibenzo[b,e][1,4]diazepine] | 187.5 | 16.7 | inhibition at 1 µM (human D4 receptors [3]; 1 μM test compound): 16%; inhibition at 10 µM (human D4 receptors [3]; 10 μM test compound): 58%; dopamine agonist activity (decrease in cAMP compared to cells treated with forskolin) (human D4 receptors [4]): no dopamine agonist activity |
| CN1CCN(C2=Nc3ccccc3Oc3c(C#N)cccc32)CC1 [4-cyano-11-(4-methyl-1-piperazinyl)dibenz[b,f][1,4]oxazepine] | 64.4 |  |  |
| CN1CCN(C2=Nc3ccccc3Oc3c2cccc3[N+](=O)[O-])CC1 [4-nitro-11-(4-methyl-1-piperazinyl)dibenz[b,f][1,4]oxazepine] | 21.4 |  |  |
| Cc1cc2c(cc1C)Nc1ccccc1C(N1CCN(C)CC1)=N2 [7,8-dimethyl-11-(4-methyl-1-piperazinyl)-5H-dibenzo[b,e][1,4]diazepine] | 10.6 |  |  |
| CN1CCN(C2=Nc3cc(Cl)ccc3Oc3ccccc32)CC1 [isoloxapine] |  |  | Ki (D4 receptor): ~20 nM |

From patent US5700445A, “N-methyl piperazine compounds having dopamine receptor affinity” (Allelix Biopharmaceuticals, Inc., priority 1994, dated 1997)
